# According to patent publication US20100261666A1, “COMPOSITIONS AND METHODS FOR THE TREATMENT OF MYOCARDIAL DYSFUNCTION ASSOCIATED WITH SIRS OR SEPSIS” (THE BOARD OF TRUSTEES OF THE UNIVERSITY OF ILLINOIS, priority 2009, published 2010):
# Test system: rat isolated hearts
# Assay: Langendorff rat isolated heart procedure: left ventricular function and coronary flow
# Type: in vivo
# Conditions: for Coronary flow Baseline / Coronary flow 30 min / Coronary flow 60 min / Coronary flow 90 min / Coronary flow 120 min / Coronary flow 150 min: mean ± SEM
# Experimental: Male Sprague Dawley, virus-free rats (Harlan) were used in each of the examples presented herein. After arrival and a brief acclimation (72 hours minimum), animals were randomized into control or experimental groups. The control and experimental protocols (Table 1) and experimental group treatments (Table 2) are described below.
# Rat isolated heart experiments were performed via Langendorff method. […] CON hearts received vehicle (IP sterile water). […] Heparin was allowed to circulate for 60 seconds at which time a thoracotomy was performed to expose the heart. The heart was quickly removed, placed in ice cold Krebs-Ringers bicarbonate buffer (KRB, described below) and weighed. The ascending aorta was rapidly cannulated and the heart was attached, via the cannula, to the perfusion apparatus. The hearts were perfused with a modified KRB containing (102 mM NaCl, 4.75 mM KCl, 1.20 mM KH2PO4, 1.18 mM MgSO4, 22.75 mM NaHCO3, 11.50 mM Glucose, 4.96 mM Na-Pyruvate, 5.40 mM Na-Fumarate and 1 mM CaCl2), at a temperature of 37.0° C., and pH 7.4 as maintained by vigorous bubbling with 95%/5% O2/CO2.
# At all times, hearts were perfused with KRB at a pressure of 72-78 mmHg set by the height of the water-jacketed reservoir. The left atrium of the heart was then removed, just above the left atrio-ventricular valve. A latex balloon was used to measure left ventricular pressure as an index of cardiac performance. The balloon was constructed by filling the reservoir tip of a latex condom with degassed water. PE-50 tubing, pre-filled with degassed water and attached to a stopcock/Hamilton screw-top syringe assembly, was flanged and placed into the tip of the condom. Surgical silk (5-0) was used to gather the condom tip around the flanged end of the tubing and form a seal, at which time the excess latex was removed.
# The balloon/stopcock assembly was attached to a pressure transducer (Spectramed-Statham) and inserted into the left ventricle to record cardiac performance data via Windaq (DATAQ, CA). Two platinum electrodes, connected to a electrical stimulator (Grass Model 92C), were placed at the lateral edges of the right atria in order to pace the heart at 300 BPM using a voltage 10% greater than that required to capture rhythm. The volume in the latex balloon was increased to produce a left ventricular diastolic pressure (LVdiaP) of 10.0 mmHg.
# The heart was then perfused normally for 30 minutes, a period designated as the equilibration phase. During this phase of perfusion hearts had to maintain a LVdiaP of 10.0±2.0 mmHg to be included in the study. At the end of thirty minutes, baseline measurements of coronary flow and left ventricular pressure were made. This time point was designated as 0 minutes. At this time, hearts receiving LPS (10 μg/mL/min) were infused via injection port/stop cock assembly, into the KRB perfusion stream, just above the aortic cannula for a total infusion time of 60 minutes. Hearts not receiving LPS were infused with vehicle (sterile water, 1.25% coronary flow (mL)·min). At 60 minutes, infusion was halted and normal KRB perfusion continued for 90 minutes (total experimental time post-equilibration=150 minutes).
# Measurements of coronary flow and left ventricular pressure were taken every 30 minutes starting at 0 minutes. At the termination of the experiment, the left ventricle was rapidly excised from the whole heart, flash frozen in liquid nitrogen and stored at −80.0° C. for further analysis.
# Statistical analysis was performed on data generated from these experimental protocols using a one-way analysis of variance (one-way ANOVA) with pair wise comparisons (Fisher Least Significant Difference test (LSD)). Data is presented herein as mean±standard error of the mean (SEM).
# The Fisher LSD was used to determine whether 30 and 150 min values differed from baseline values. In addition, changes from baseline values (e.g., 30 or 150 minute value−respective baseline value) were compared among groups.
# [1] = LPS infusion 10 μg/mL/min (-LPS group)
# [2] = LPS infusion, 30 minutes, change from baseline, mean±SEM
Compound,Coronary flow Baseline [1],Coronary flow 30 min (LPS infusion (-LPS group)),Coronary flow 60 min (LPS infusion (-LPS group)),Coronary flow 90 min (LPS infusion (-LPS group)),Coronary flow 120 min (LPS infusion (-LPS group)),Coronary flow 150 min (LPS infusion (-LPS group)),"+dP/dt compared to respective baseline (LPS infusion, 30 minutes)","LV developed pressure compared to respective baseline (LPS infusion, 30 minutes)","LV diastolic pressure compared to respective baseline (LPS infusion, 30 minutes)","increase in LV developed pressure compared to LPS group (LPS infusion, 30 minutes)","increase in LV systolic pressure compared to LPS group (LPS infusion, 30 minutes)","increase in −dP/dt compared to LPS group (LPS infusion, 30 minutes)","+dP/dt compared to LPS hearts (LPS infusion, 150 minutes)","LV developed pressure compared to LPS hearts (LPS infusion, 150 minutes)","LV developed pressure compared to respective baseline (LPS infusion, 150 minutes)","LV diastolic pressure (LPS-induced increase) compared to LPS hearts (LPS infusion, 150 minutes)","−dP/dt compared to LPS alone / among groups (LPS infusion, 150 minutes)","−dP/dt compared to respective baseline (LPS infusion, 150 minutes)",Coronary flow 30 min (vehicle infusion (-CON group)),Coronary flow 60 min (vehicle infusion (-CON group)),other results
"Oc1ncnc2[nH]ncc12 [ALO, allopurinol]",24.1 ± 1.3 mL/min,24.2 ± 1.1 mL/min,24.7 ± 1.4 mL/min,24.5 ± 1.4 mL/min,23.4 ± 1.7 mL/min,22.5 ± 1.7 mL/min,significantly greater,significantly greater,significantly decreased,of a similar magnitude,of a similar magnitude,similar,did not statistically change,of a similar magnitude,significantly decreased,attenuation,did not significantly affect,significantly decreased,25.9 ± 1.8 mL/min,25.1 ± 1.9 mL/min,"+dP/dt compared to respective baseline (LPS infusion, 150 minutes): significantly decreased; LV systolic pressure compared to respective baseline (LPS infusion, 150 minutes): significantly decreased; Coronary flow 90 min (vehicle infusion (-CON group)): 24.7 ± 1.9 mL/min; Coronary flow 120 min (vehicle infusion (-CON group)): 24.1 ± 1.6 mL/min; Coronary flow 150 min (vehicle infusion (-CON group)): 22.6 ± 1.4 mL/min; Coronary flow Baseline (vehicle infusion (-CON group)): 25.4 ± 2.1 mL/min; LV diastolic pressure compared to respective baseline (vehicle infusion, 30 minutes): No changes; LV developed pressure compared to respective baseline (vehicle infusion, 150 minutes): No changes; LV diastolic pressure compared to respective baseline (vehicle infusion, 150 minutes): remained unchanged; LV systolic pressure compared to respective baseline (vehicle infusion, 150 minutes): no change; −dP/dt compared to respective baseline (vehicle infusion, 150 minutes): remained unchanged"
"OC[C@H]1O[C@@H](n2cnc3c2N=CNCC3O)CC1O (stereo in doubt) [dCF, 2′-deoxycoformycin]",27.4 ± 1.7 mL/min,28.7 ± 1.2 mL/min,27.8 ± 1.2 mL/min,25.7 ± 1.0 mL/min,22.4 ± 1.1 mL/min,19.6 ± 0.8 mL/min,significantly greater,significantly increased,significantly lower,similar,similar,similar,improved,improved,not significantly different,improved,No significant differences,significantly lower,27.7 ± 1.9 mL/min,26.3 ± 2.1 mL/min,"LV systolic pressure compared to respective baseline (LPS infusion, 30 minutes): significantly greater; −dP/dt compared to respective baseline (LPS infusion, 30 minutes): significantly greater; increase in LV developed pressure [2]: 20.1±3.2 mmHg; increase in LV systolic pressure [2]: 17.1±3.0 mmHg; +dP/dt compared to CON (LPS infusion, 150 minutes): No differences; LV developed pressure compared to CON (LPS infusion, 150 minutes): No differences; LV systolic pressure compared to LPS group / among groups (LPS infusion, 150 minutes): no significant differences; Coronary flow 90 min (vehicle infusion (-CON group)): 24.5 ± 1.8 mL/min; Coronary flow 120 min (vehicle infusion (-CON group)): 21.5 ± 1.9 mL/min; Coronary flow 150 min (vehicle infusion (-CON group)): 19.8 ± 2.0 mL/min; Coronary flow Baseline (vehicle infusion (-CON group)): 28.1 ± 1.9 mL/min; +dP/dt compared to respective baseline (vehicle infusion, 30 minutes): no differences; LV diastolic pressure compared to respective baseline (vehicle infusion, 30 minutes): significantly lower; −dP/dt compared to respective baseline (vehicle infusion, 30 minutes): no differences; LV developed pressure compared to respective baseline (vehicle infusion, 150 minutes): not significantly different; −dP/dt compared to respective baseline (vehicle infusion, 150 minutes): significantly lower"
